Measurements: patent US10508111B2, “6-[5-amino-6-(2-ethoxyethoxy)-imidazo[4,5-B]pyridin-3-yl]-nicotinonitrile derivatives and their use as IRAK inhibitors” (GALAPAGOS NV, priority 2015, dated 2019)

Key:
[1] = biological target: T1, human IRAK-4 (Homo sapiens, UniProt Q9NWZ3); experiment: IC50 determination for human IRAK-4, radioactive filter plate assay; assay type: biochemical; conditions: RIP140 substrate, 1 μM ATP + [γ-33P]ATP, 30° C., 45 min; read-out: hIRAK-4 IC50
T1 construct: purchased Carna Biosciences 09-145
T1 sequence (Q9NWZ3 1-460): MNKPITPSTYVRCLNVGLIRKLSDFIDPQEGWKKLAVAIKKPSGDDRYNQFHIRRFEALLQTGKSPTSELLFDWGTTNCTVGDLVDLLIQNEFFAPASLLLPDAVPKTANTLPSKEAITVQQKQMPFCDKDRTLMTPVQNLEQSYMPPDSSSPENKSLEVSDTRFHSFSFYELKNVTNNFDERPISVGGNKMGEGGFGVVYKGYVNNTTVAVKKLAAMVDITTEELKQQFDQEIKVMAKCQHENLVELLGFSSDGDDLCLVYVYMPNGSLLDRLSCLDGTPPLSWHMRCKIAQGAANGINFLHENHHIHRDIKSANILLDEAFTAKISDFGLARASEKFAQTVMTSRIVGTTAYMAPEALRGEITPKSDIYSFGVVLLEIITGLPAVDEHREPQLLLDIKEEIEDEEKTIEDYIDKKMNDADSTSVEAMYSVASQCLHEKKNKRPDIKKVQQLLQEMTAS
Protocol: The IC50 value for IRAK-4 is determined in a radioactive filter plate assay. The principle of the assay consists in the measurement of incorporated ^33P into the RIP140 substrate upon phosphorylation by the enzyme IRAK-4 using [γ-^33P]ATP and ATP. Unincorporated ^33P is removed by loading the samples on a filter plate (using a harvester, PerkinElmer) and 6 subsequent washing steps. Incorporated ^33P in RIP140 is measured by a scintillation counter (Topcount, PerkinElmer) after addition of MicroScint™-20 (PerkinElmer, 6013621) to the filter plates.
5 μL of a water dilution series of test compound (starting from 20 μM or 6.6 μM highest concentration), from a 100% DMSO stock solution, 1/5 dilution, is added to the wells (final DMSO concentration of 1% in reaction assay). IRAK-4 (Carna Biosciences, 09-145) and RIP140 (SEQ ID1, cf. Table VII) are used at a final concentration of 10 ng/mL and 4 μM, respectively. The enzyme and substrate are diluted in 25 mM Tris pH 7.5, 0.025% Triton X-100, 5 mM MnCl2, and 2 mM DTT to a total volume of 11 μL. The reaction is started by addition of 9 μL of 1 μM ATP (Sigma, A6419-5G)+0.25 μCi [γ-^33P]ATP (PerkinElmer, NEG602K001MC), diluted in the same buffer as enzyme and substrate. The mixture is incubated at 30° C. for 45 min. The reaction is terminated by adding 25 μL of 150 mM phosphoric acid (VWR, 1.00573.1000). Samples are transferred to filter plates and incorporated radioactivity is measured using a scintillation counter.
10 μM staurosporine (1% DMSO) is used as positive control (100% inhibition); vehicle (water+1% DMSO) as negative control (0% inhibition).

[2] = tested on: TNFα triggered MMP13 release in SW1353 cells; experiment: SW1353 cellular selectivity assay, TNFα trigger, MMP13 readout; assay type: cell-based, human; conditions: TNFα trigger 10 ng/mL; for IC50: Homo sapiens; for TNFα trigger MMP13 PIN at 20 μM: percent inhibition at 20 μM compound
Source text: The aim of this assay is to evaluate the selectivity of compounds of the invention for the activated TLR/IRAK-4 pathway in an in vitro human cellular assay setting. SW1353 cells are from a chondrocytic cell line and are responsive to both the interleukin 1 (IL-1) and the TNFα cytokine triggers. Both cytokine triggers induce the expression of interleukin 6 (IL-6) and MMP13 by these cells. IL-6 and MMP13 releases are used as readouts in this assay and represent a measure for the level of inhibition of the TLR/IRAK-4 pathway by the tested compound.
SW1353 cells are cultured in DMEM supplemented with 10% FBS and 1% Penicillin/Streptomycin. Cells are incubated at 37° C. in a humidified atmosphere of 5% CO2 and subcultured twice a week. During subculturing, trypsin-EDTA is used to detach the cells, followed by a neutralization step with cell culture medium. After centrifugation (1,000 rpm during 5 min), the pellet is resuspended in cell culture medium and cells are counted using an automated cell counter (Invitrogen Countess™).
Cells are used at passage 16 and plated at a density of 15,000 cells per well in 120 μL cell culture medium in 96-well culture plates. Cells are allowed to attach during overnight incubation.
SW1353 cells are pre-incubated with test compound by addition of 15 μL of 10× concentrated compound solution for 2 h at 37° C. and 5% CO2. The compounds are tested at different concentrations and prepared by 3-fold serial dilutions from the 10 mM stock solution in DMSO followed by a 1/50 dilution step in cell culture medium. Final test concentrations in the assay start from 20 μM, with subsequent 3-fold serial dilutions with equal final DMSO concentrations of 0.2%. After the compound pre-incubation step, the SW1353 cells are triggered by addition of 15 μL of 10× concentrated IL-1f (Peprotech, 200-01B) or TNFα trigger (Peprotech, 300-01A) to the wells with final assay volume of 150 μL per well and final trigger concentration of 1 ng/mL and 10 ng/mL, respectively. Negative controls are adjusted with equal DMSO concentrations without trigger. The assay plates are then incubated in a humidified incubator at 37° C. and 5% CO2. Cell supernatants are harvested 24 h and 48 h later by transferring the cell medium into a V-bottom polypropylene 96-well plate and stored at −80° C. until ELISA readout.
The levels of secreted MMP13 in the cell supernatants are quantified in an antibody capture activity assay. […] After incubation for 1 h at 37° C., fluorescence of the converted substrate is measured with a PerkinElmer EnVision® (excitation wavelength: 320 nm, emission wavelength: 405 nm).
All controls are measured within the linear range of the human IL-6 and MMP13 standard curve of the ELISA. […]

| SMILES | IC50 [1] | IC50 [2] | TNFα trigger MMP13 PIN at 20 μM [2] |
| --- | --- | --- | --- |
| N#Cc1ccc(-n2cnc3cc(OCCOCCO)c(NC4CCOCC4)nc32)nc1 [Compound 1, 6-[6-[2-(2-hydroxy-ethoxy)-ethoxy]-5-(tetrahydro-pyran-4-ylamino)-imidazo[4,5-b]pyridin-3-yl]-nicotinonitrile] | 6.35 nM | > 20000 nM | [26%] |
| C[C@]1(O)CC[C@@H](Nc2nc3c(cc2OCCOCCO)ncn3-c2ccc(C#N)cn2)CC1 [Compound 12, 6-[6-[2-(2-hydroxyethoxy)ethoxy]-5-[((cis-1,4)-4-hydroxy-4-methylcyclohexyl)amino]imidazo[4,5-b]pyridin-3-yl]pyridine-3-carbonitrile] | 0.95 nM | > 20000 nM | [36%] |
